Twelve molecules from patent US8709391B2, “Family of pain producing substances and methods to produce novel analgesic drugs” (Board of Regents of the University of Texas System, priority 2008, dated 2014) can be followed below.

Experiment [1] relates to rat TG neurons. Kind of experiment: heat-evoked (48° C.) iCGRP release from rat TG neurons. The experiment is classed as cell-based. To be noted: NDGA 10 uM, indomethacin 2 uM, I-RTX 200 nM.
In experiment [2] the test system is TG neurons from TRPV1 KO mice. Kind of experiment: [Ca2+]i levels in cultured TG neurons from TRPV1 KO mice. The class given is cell-based, mouse. How it is done:
(§1) FIGS. 1A-H depict that endogenous TRPV1 ligands are generated upon heat insult of mouse skin. The hypothesis of heat-evoked generation of endogenous TRPV1 ligand(s) was evaluated by harvesting mouse skin and then collecting superfusate samples after 20 min exposure to basal (37° C.=“control” skin) or noxious (48° C.=“heated” skin) temperatures. Aliquots of the two superfusates were applied, at room temperature, to cultured trigeminal ganglia (TG) neurons from wild type (WT) or TRPV1 knock out (TRPV1 KO) mice for measurement of evoked increases in intracellular calcium levels [Ca^2+]i. […] Conversely, there were no changes in [Ca^2+]i after application of supernatants from heated skin to either TRPV1 KO cultures (FIG. 1B; mustard oil served as a positive control) or to WT neurons insensitive to capsaicin (data not shown).
(§2) The pharmacological activity of synthetic 9-HODE and related compounds on sensory neurons was characterized. […] Another major metabolic pathway of linoleic acid leads to formation of 13-HODE and its metabolite, 13-oxoODE. The relative efficacy of these four compounds for evoked [Ca^2+]i levels was evident when tested in cultured neurons from WT mice (FIG. 3G) and in TRPV1-expressing CHO cells (FIG. 3H).
(§3) The epoxy metabolite, 9,10 EpOME (also known as leukotoxin), is highly elevated in burn patients and is implicated in shock in these patients.
(§4) FIG. 12 depicts the effect of lipids extracted from burned human skin samples against cultured trigeminal sensory neurons from control (wild type, “WT”) mice and from TRPV1 knock-out mice. Samples of burned human skin and control (non-burned) human skin from patients undergoing treatment in a hospital burn ward were obtained. The lipids from the skin samples were extracted by incubation with acetonitrile and the samples dried under nitrogen gas. The samples were tested against cultured trigeminal sensory neurons from control (wild type, “WT”) mice and from TRPV1 knock-out mice using real time imaging of calcium accumulation (fura-2 method). Extracts from human control (non burned) skin had no effect on activating neurons from either control (WT) or TRPV1 knockout (TRPV1 KO) mice. […] Thus, similar to the oxidized linoleic acid metabolites, the extracts from burned human skin activate TRPV1 and some other channels.

The subject of another experiment is TG neurons from WT mice. Nature of the experiment: [Ca2+]i levels in cultured TG neurons from WT mice. The experiment is classed as cell-based, mouse. As to conditions: for [Ca2+]i response evoked in TG neurons / responding neurons / capsaicin-sensitive neurons: 100 μM. How it is done:
as §1, §2, §3, §4

Experiment [3] concerns rats. Nature of the experiment: intrathecal application, tactile allodynia in rats. The experiment is classed as in vivo, rat. The text has this: FIGS. 9A-D depict that spinal injection (intrathecal) of capsaicin or 9-HODE into the spinal cord space results in tactile allodynia. This effect is mediated by activation of TRPV1 since it is blocked by a TRPV1 antagonist (AMG 9810). […] The results were compared with the results obtained with the positive control capsaicin. […] Comparison of the peak effect evoked by both capsaicin and 9-HODE is shown in FIGS. 9C-D. The effects were remarkably similar.

The next experiment relates to WT mice. Kind of experiment: hindpaw intraplantar (ipl) injection, thermal allodynia, WT mice. The experiment is classed as in vivo, mouse.
A further experiment concerns TRPV1 KO mice. Nature of the experiment: hindpaw intraplantar (ipl) injection, thermal allodynia, TRPV1 KO mice. The class given is in vivo, mouse.
Experiment [4] relates to rat trigeminal sensory neurons. Nature of the experiment: linoleic acid activation of rat trigeminal sensory neurons, intracellular calcium (Fura-2). The class given is cell-based. As to conditions: pretreatment; for inhibition of the formation of linoleic acid metabolites (neuron-activating compounds): concluded from the neuron activation test. The text has this:
FIG. 14 depicts the effects of pretreatment with either cytochrome P450 inhibitors (NDGA, DPI, CO or ketoconazole, ODYA), nitric oxide synthase inhibitors (L-NAME, L-NNA), lipoxygenase inhibitors (BW-70C, PD, TEDC) or antioxidants (TROLOX, NAC, TEMPOL) versus negative controls (vehicle, argon) on the ability of linoleic acid to activate rat trigeminal sensory neurons as measured by real time levels of intracellular calcium (Fura-2, as indicated by the ratio of 340/380).
A general note: Calcium flux is commonly read through the fluorescence of an indicator in the cells.

Experiment [5] deals with rat TG neurons. Kind of experiment: patch clamp electrophysiology, heat (48° C.)-evoked inward current (Iheat) in rat TG neurons. The class given is cell-based. To be noted: pretreatment, NDGA 30 uM, miconazole 100 uM. How it is done:
FIGS. 5A-D depict that interventions reducing production or action of linoleic acid oxidation products results in decreased thermal pain. Whether heat-evoked activation of rat TG neurons is inhibited by interventions directed against linoleic acid metabolites was evaluated. […] Using patch clamp electrophysiology, the local application of a heat step (48° C.) produced a strong inward current (Iheat) in TG neurons. Pretreatment with NDGA produced ˜50% reduction (p<0.05) in Iheat. (FIG. 5B). In a similar patch clamp electrophysiology set up, pretreatment with miconazole (100 uM) produced more than 75% reduction (p<0.001) in Iheat (FIG. 5C). Whether intracellular immunoneutralization against 9-HODE and 13-HODE alters the responsiveness of sensory neurons to noxious heat was evaluated next. A solution containing both anti-9-HODE and anti-13-HODE antibodies (concentrations of 0.03-0.06 ug and 0.006-0.012 ug/patch pipette respectively) was delivered intracellularly via dialysis for 5 min prior to the application of a heat step (48° C.).

For experiment [6], the system named is rats. Kind of experiment: thermal nociception in rats after intraplantar hindpaw (ipl) injection. The experiment is classed as in vivo, rat. To be noted: 100 ug/paw ipl, 15 minute, ipsilateral hindpaw.
Description: The intraplantar hindpaw (ipl) injection of NDGA, miconazole, and a combination of anti 9-HODE and anti-13-HODE was compared to morphine sulfate, a gold standard analgesic. […] The studies were performed in a separate groups of animals for each condition and by observers blinded to treatment allocation (all compounds at 100 ug/paw and antibodies were each 25 ug/paw) (FIG. 10).
Experiment [7] concerns rat TG neurons. Nature of the experiment: activation of rat TG neurons by compound(s) released from heated skin, pretreatment with TRPV1 antagonist. As to conditions: I-RTX 200 nM pretreatment; superfusates from skin exposed to 48° C. The experiment is classed as cell-based. How it is done: To further characterize the TRPV1 specificity of these endogenous heat-generated compound(s), the effect of pretreatment with the TRPV1 antagonist iodo-resiniferatoxin (I-RTX) on the activation of rat TG neurons was evaluated. […] Moreover, application of these compound(s) triggered prompt increases in [Ca]i in CHO cells expressing TRPV1, but not in negative control CHO cells that expressed a GFP construct (FIGS. 1E-F). Next, initial superfusion experiments in isolated mouse skin were expanded by collecting supernatant after exposure to various temperatures and evaluating the release of endogenous TRPV1 compound(s).

A further experiment deals with T1, TRPV4 (Homo sapiens, UniProt Q9HBA0).
T1 construct: expressed in transfected cells; host or cells: CHO cells
T1 sequence (Q9HBA0 whole entry, species assumed): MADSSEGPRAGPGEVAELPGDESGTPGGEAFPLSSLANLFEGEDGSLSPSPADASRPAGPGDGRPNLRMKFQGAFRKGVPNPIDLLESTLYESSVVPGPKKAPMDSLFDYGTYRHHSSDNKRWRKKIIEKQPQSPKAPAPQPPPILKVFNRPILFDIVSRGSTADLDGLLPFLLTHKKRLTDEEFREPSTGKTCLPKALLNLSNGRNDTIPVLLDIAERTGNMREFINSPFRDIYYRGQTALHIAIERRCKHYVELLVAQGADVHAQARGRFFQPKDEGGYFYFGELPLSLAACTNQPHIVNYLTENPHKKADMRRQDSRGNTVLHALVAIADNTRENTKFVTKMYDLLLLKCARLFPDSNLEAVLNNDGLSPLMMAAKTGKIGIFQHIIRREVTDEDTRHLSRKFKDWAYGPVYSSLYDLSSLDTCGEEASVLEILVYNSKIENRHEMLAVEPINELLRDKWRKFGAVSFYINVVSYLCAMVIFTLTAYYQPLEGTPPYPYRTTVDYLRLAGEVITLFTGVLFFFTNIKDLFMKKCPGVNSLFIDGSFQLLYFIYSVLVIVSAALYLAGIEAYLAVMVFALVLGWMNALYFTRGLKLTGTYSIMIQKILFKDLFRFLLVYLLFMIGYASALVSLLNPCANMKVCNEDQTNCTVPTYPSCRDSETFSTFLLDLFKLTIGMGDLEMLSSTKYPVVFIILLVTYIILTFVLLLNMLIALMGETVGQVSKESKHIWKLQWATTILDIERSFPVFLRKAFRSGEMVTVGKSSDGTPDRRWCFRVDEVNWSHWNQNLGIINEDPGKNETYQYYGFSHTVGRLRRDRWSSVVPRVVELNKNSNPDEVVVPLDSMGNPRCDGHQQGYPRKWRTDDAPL
Nature of the experiment: [Ca2+]i in CHO cells expressing TRPV4. As to conditions: screening against other heat-sensitive TRP channels. The experiment is classed as cell-based.
Excerpt: as §3
FIG. 13 depicts the effect of lipids, extracted from burned human skin samples, and then applied to CHO cells that expressed either TRPV1, TRPV2, TRPV3, TRPV4 or TRPA1, using real time calcium imaging. As shown, the extracts of the burned human skin activated TRPV1, TRPV3, TRPV4 and TRPA1, but not TRPV2.

The test system of a further experiment is cultured rat TG neurons. Nature of the experiment: CGRP release from cultured rat TG neurons evoked by 9-HODE. The experiment is classed as cell-based.

Each structure is given as a SMILES string.

For the molecule `COc1ccc2c(c1)c(CC(=O)O)c(C)n2C(=O)c1ccc(Cl)cc1` [indomethacin], in the experiment with rat TG neurons [1], the “reversal of heat-evoked iCGRP release by pretreatment” value (“reversal of heat-evoked iCGRP release” below) is on record as “not”.

With `CCCCC/C=C\C=C\C(=O)CCCCCCCC(=O)O` [9-oxoODE, (10E,12Z)-9-oxooctadeca-10,12-dienoic acid], the figures for the “[Ca2+]i levels after application” value (in experiment [2] (concentration not given); in the experiment on TG neurons from WT mice (concentration not given)) were “not in neurons from TRPV1 KO mice” and “triggered increased [Ca^2+]i levels”, respectively.

In the case of `COc1cc(CNC(=O)CCCC/C=C/C(C)C)ccc1O` [capsaicin], in the experiment on rats [3] (5 ug intrathecal), the “duration of tactile allodynia post injection” value came to 1 h and the “tactile allodynia evoked by intrathecal application” value is on record as “evoked tactile allodynia”.

For the molecule `CCCCC/C=C\CC1OC1CCCCCCCC(=O)O` (stereo not shown) [9,10 EpOME, (12Z)-9,10-epoxyoctadecenoic acid], the “thermal allodynia after ipl injection” value in the experiment with WT mice (50 μg/ipl) is listed as “evoked thermal allodynia”. Also, the “responding neurons / tested neurons” value in experiment [2] was 0/58. Moreover, the “thermal allodynia after ipl injection” value with TRPV1 KO mice (50 μg/ipl) was “absent”. Also, in the experiment with TG neurons from WT mice, the “[Ca2+]i response evoked in TG neurons” value is given as “evoked calcium accumulation only in capsaicin-sensitive neurons” and the “responding neurons / capsaicin-sensitive neurons” value is listed as 58/58.

For `CC(=O)N1CCN(c2ccc(OCC3COC(Cn4ccnc4)(c4ccc(Cl)cc4Cl)O3)cc2)CC1` (stereo not shown) [ketoconazole], the “block of the ability of linoleic acid to activate pain neurons” value in experiment [4] (Fura-2 ratio 340/380) was “completely blocked”. Further, the “inhibition of the formation of linoleic acid metabolites (neuron-activating compounds)” value in experiment [4] is recorded as “inhibits the formation of linoleic acid metabolites”.

Take `CC(C)(C)c1ccc(/C=C/C(=O)Nc2ccc3c(c2)OCCO3)cc1` [AMG 9810]: the “reversal of 9-HODE-evoked tactile allodynia” value with rats [3] (AMG 9810 50 ug, 9-HODE 5 ug intrathecal) is on record as “completely reversible”. For the same molecule, the “reversal of capsaicin-evoked tactile allodynia” value in the experiment with rats [3] (AMG 9810 50 ug, capsaicin 5 ug intrathecal) is reported as “completely reversible”. Besides, the “effect alone on mechanical withdrawal thresholds” value with rats [3] (antagonist alone, intrathecal) is “Neither the vehicle nor AMG 9810 alone had any effect”.

Consider `Clc1ccc(COC(Cn2ccnc2)c2ccc(Cl)cc2Cl)c(Cl)c1` (stereo not shown) [miconazole], for which, in the experiment with rat TG neurons [5], the “reduction in Iheat” value is recorded as “more than 75%”. The thermal antinociception entry in the experiment on rats [6] was “thermal antinociception far beyond that of the vehicle or morphine injected rats”.

Take `C=C(C)[C@]12C[C@@H](C)[C@@]34O[C@](Cc5ccccc5)(O[C@@H]1[C@@H]3C=C(COC(=O)Cc1cc(I)c(O)c(OC)c1)C[C@]1(O)C(=O)C(C)=C[C@@H]41)O2` [I-RTX, iodo-resiniferatoxin]: in the experiment with rat TG neurons [1], the “reversal of heat-evoked iCGRP release” value is recorded as “partially reversed”. The “block of activation of neurons by compound(s) released from heated skin” value in the experiment with rat TG neurons [7] is given as “completely blocked”.

On to `CCCCCC=CCC(O)C(O)CCCCCCCC(=O)O` (stereo not shown) [9,10-DiHOME, 9(10)-dihydroxy-octadec-12-enoic acid], for which the TRPV4 agonist activity result on TRPV4 is “TRPV4 agonist”.

With `CC(Cc1ccc(O)c(O)c1)C(C)Cc1ccc(O)c(O)c1` (stereo not shown) [NDGA, Nordihydroguaiaretic Acid], the “reduction in Iheat” value in the experiment on rat TG neurons [5] is recorded as around 50%. In the experiment on rat TG neurons [1], the “reversal of heat-evoked iCGRP release” value is given as “partially reversed”. In addition, the thermal antinociception entry with rats [6] was “thermal antinociception far beyond that of the vehicle or morphine injected rats”.

The EC50 is the concentration at which the effect is half-maximal. Regarding `CCCCC/C=C\C=C\C(O)CCCCCCCC(=O)O` (stereo not shown) [9-HODE, 9-hydroxyoctadecadienoic acid], the “tactile allodynia evoked by intrathecal application” value in the experiment with rats [3] (5 ug intrathecal) is “evoked tactile allodynia that was of similar magnitude and duration to that of capsaicin”. In addition, in the experiment with cultured rat TG neurons, the “concentration at which effects on CGRP release are evident” value was 10 nM. In addition, in the experiment on cultured rat TG neurons (read-out: EC50 of increase in CGRP release), the EC50 is around 300 nM. In the experiment with WT mice (blinded observers), the “thermal allodynia after ipl injection” value is “significantly greater thermal allodynia”. Further, in experiment [2], the “magnitude of [Ca2+]i accumulation and its time course compared to WT neurons” value is on record as “greatly reduced”; the “responding neurons / tested neurons” value was 3/66; the “tested neurons with a slight response” value worked out at 4%. In addition, the “thermal allodynia after ipl injection” value with TRPV1 KO mice (blinded observers) is given as “not in TRPV1 KO mice”. Also, in the experiment on TG neurons from WT mice, the “[Ca2+]i response evoked in TG neurons” value is reported as “robust response” and the “responding neurons / capsaicin-sensitive neurons” value is 75/75.

Turning to `C#CCCCCCCCCCCCCCCCC(=O)O` [ODYA, 17-Octadecynoic acid], in experiment [4], the “inhibition of the formation of linoleic acid metabolites (neuron-activating compounds)” value is recorded as “does not”.
